The text below walks through data of US9868758B2, “Betulinic proline imidazole derivatives as HIV inhibitors” (HETERO LABS LIMITED, priority 2014, dated 2018).

Series [1] can be described thus: Cyto-toxicity, MTT assay. The format is cell-based. The note with it: read-out: Cytotoxicity % viability. A general note: Tetrazolium assays rely on reduction of a dye to a coloured formazan, in cell work by metabolically active cells.
Experimental: On day 1 calculate the number of cells required for the assay and seed 3×10^4 cells in 200 μl per well. Weigh the compound and dissolve it in DMSO to get 10 mM stock which is further diluted to 3 mM and 1 mM. The drugs from these stocks were added to plate to get final concentration of 100 μM, 30 μM and 10 μM. […] Incubate for 4 days in 5% CO2 incubator at 37° C. On day 4, 100 μl of medium was removed from each well without disturbing the cells. Add 10 μl of MTT reagent and incubate for 4 hours at 5% CO2 incubator at 37° C. for formation of crystals. Add 200 μl of 0.1N acidic isopropanol to dissolve the crystals and read the plate at 590 nm.
In series [2] the test system is HIV-1 strains, for e.g., 92HT599. Put plainly: Antiviral activity: p24 estimation in HIV-1 infected MT-2 cells. Format: cell-based. The note with it: Human immunodeficiency virus 1, MT2, MT-2 cells; for inhibition at 0.01 µM / inhibition at 0.1 µM / inhibition at 1 µM: p24, ~96 hours; for IC50: p24, read-out: Antiviral activity IC50. As for the experimental part: MT-2 cells were infected with required number of TCID50's of HIV-1 strains, for e.g., 92HT599. The infected cells were plated at the concentration of 30,000 cells per well in a 96 well plate. Test compound was added to the 96 well plate with the final concentration of DMSO (vehicle—not more than 1%). The plates are then incubated in a CO2 incubator for ˜96 hours (˜4 days) for viral infection. At the end of incubation period an aliquot from each well was taken for p24 estimation. The quantitation of p24 is an estimated index for antiviral activity of the compound. Percent inhibition was calculated with reference to control values (vehicle controls).
p-24 estimation was carried out using Advance biosciences kit as per the procedure detailed by supplier.

Series [3] is described as follows: Single dose oral pharmacokinetic study. Details: species or system mice. The note with it: mouse, in vivo, po, 30 mg/kg. How it is done:
The test item was administered through oral route to animals (rat/mice) at 30 mg/kg dose in a suitable vehicle at 10 ml/kg dose volume. Blood samples (˜50 uL at each time point) were collected from retro-orbital plexus using K3 EDTA as anticoagulant in eppendorf tubes at defined time intervals under light ether anesthesia. The samples were centrifuged at 3500×g to separate plasma and stored at −80° C. until analysis.
Sample analysis: Test samples were analyzed using LC-MS-MS after developing fit-for-purpose method for each of test compound.

As usually defined, the viability is the share of living cells, or the viability signal relative to a control. For orientation: inhibition means the percentage by which the read-out fell short of the control. In the case of `C=C(C)[C@@H]1CC[C@]2(C(=O)N3C[C@H](OCCOC)C[C@H]3c3nc(-c4ccccc4)cn3CCC(C)C)CC[C@]3(C)[C@H](CC[C@@H]4[C@@]5(C)CC[C@H](OC(=O)[C@H]6C[C@@H](C(=O)O)C6(C)C)C(C)(C)[C@@H]5CC[C@]43C)[C@@H]12` [Compound 26, (1R,3S)-3-((((1R,3aS,5aR,5bR,7aR,9S,11aR,11bR,13aR,13bR)-3a-((2S,4R)-2-(1-isopentyl-4-phenyl-1H-imidazol-2-yl)-4-(2-methoxyethoxy)pyrrolidine-1-carbonyl)-5a,5b,8,8,11a-pentamethyl-1-(prop-1-en-2-yl)icosahydro-1H-cyclopenta[a]chrysen-9-yl)oxy)carbonyl)-2,2-dimethylcyclobutane-1-carboxylic acid], in series [1], the viability at 4 days, 10 µM came out at 77%; the viability at 4 days, 30 µM amounted to 54%; the viability at 4 days, 100 µM was determined as 9%. In series [2], the inhibition at 0.01 µM was 0%, the inhibition at 0.1 µM was 15% and the inhibition at 1 µM is 99%.

`C=C(C)[C@@H]1CC[C@]2(C(=O)N3CCC[C@H]3c3nc(-c4cccc(F)c4)cn3CCN(C)C)CC[C@]3(C)[C@H](CC[C@@H]4[C@@]5(C)CC[C@H](OC(=O)[C@H]6C[C@@H](C(=O)O)C6(C)C)C(C)(C)[C@@H]5CC[C@]43C)[C@@H]12` [Compound 12, (1R,3S)-3-((((1R,3aS,5aR,5bR,7aR,9S,11aR,11bR,13aR,13bR)-3a-((S)-2-(1-(2-(dimethylamino)ethyl)-4-(3-fluorophenyl)-1H-imidazol-2-yl)pyrrolidine-1-carbonyl)-5a,5b,8,8,11a-pentamethyl-1-(prop-1-en-2-yl)icosahydro-1H-cyclopenta[a]chrysen-9-yl)oxy)carbonyl)-2,2-dimethyl cyclobutane-1-carboxylic acid]: in series [1], the viability at 4 days, 10 µM amounted to 42%; the viability at 4 days, 30 µM came to 31%; the viability at 4 days, 100 µM is 5%. Further, in series [2], the inhibition at 0.01 µM was 24%, the inhibition at 0.1 µM was 44% and the inhibition at 1 µM is 99%.

As usually defined, the AUC(0-t) is exposure summed from dosing to a finite time, without extrapolation to infinity. Low values mean less exposure, high ones more exposure. Broadly, the Cmax is the peak of the concentration-time curve. Usually IC50 stands for the concentration that gives 50% inhibition. As for `C=C(C)[C@@H]1CC[C@]2(C(=O)N3CCC[C@H]3c3nc4ccccc4n3CCN(C)C)CC[C@]3(C)[C@H](CC[C@@H]4[C@@]5(C)CC[C@H](OC(=O)[C@H]6C[C@@H](C(=O)O)C6(C)C)C(C)(C)[C@@H]5CC[C@]43C)[C@@H]12` [Compound 29, (1R,3S)-3-((((1R,3aS,5aR,5bR,7aR,9S,11aR,11bR,13aR,13bR)-3a-((S)-2-(1-(2-(dimethylamino)ethyl)-1H-benzo[d]imidazol-2-yl)pyrrolidine-1-carbonyl)-5a,5b,8,8,11a-pentamethyl-1-(prop-1-en-2-yl)icosahydro-1H-cyclopenta[a]chrysen-9-yl)oxy)carbonyl)-2,2-dimethylcyclobutane-1-carboxylic acid], in series [3], the exposure AUC(0-t) was determined as 491 µg·h/mL and the peak level (Cmax) was 14900 ng/mL. In addition, in series [1], the viability at 4 days, 0.01 µM stood at 31%; the viability at 4 days, 0.1 µM was 1%; the viability at 4 days, 1 µM was 5%. Besides, in series [2], the inhibition at 0.01 µM is 0%, the inhibition at 0.1 µM is 100%, the inhibition at 1 µM was 100% and the IC50 is 0.00976 µM.

Regarding `C=C(C)[C@@H]1CC[C@]2(C(=O)N3C[C@H](OCCOC)C[C@H]3c3nc(-c4cccc(F)c4)cn3CCN3CCCC3)CC[C@]3(C)[C@H](CC[C@@H]4[C@@]5(C)CC[C@H](OC(=O)[C@H]6C[C@@H](C(=O)O)C6(C)C)C(C)(C)[C@@H]5CC[C@]43C)[C@@H]12` [Compound 28, (1R,3S)-3-((((1R,3aS,5aR,5bR,7aR,9S,11aR,11bR,13aR,13bR)-3a-((2S,4R)-2-(4-(3-fluorophenyl)-1-(2-(pyrrolidin-1-yl)ethyl)-1H-imidazol-2-yl)-4-(2-methoxyethoxy)pyrrolidine-1-carbonyl)-5a,5b,8,8,11a-pentamethyl-1-(prop-1-en-2-yl)icosahydro-1H-cyclopenta[a]chrysen-9-yl)oxy)carbonyl)-2,2-dimethylcyclobutane-1-carboxylic acid], in series [3], the exposure AUC(0-t) was 293 µg·h/mL and the Cmax was 7300 ng/mL. Moreover, in series [1], the viability at 4 days, 0.01 µM was 65%; the viability at 4 days, 0.1 µM came to 19%; the viability at 4 days, 1 µM is 6%. Besides, in series [2], the inhibition at 0.01 µM is 13%, the inhibition at 0.1 µM is 98%, the inhibition at 1 µM is 100% and the half-maximal inhibitory concentration (IC50) was 0.0396 µM.

As for `C=C(C)[C@@H]1CC[C@]2(C(=O)N3C[C@H](OCCOC)C[C@H]3c3nc(-c4ccccc4)cn3CCN3CCCC3)CC[C@]3(C)[C@H](CC[C@@H]4[C@@]5(C)CC[C@H](OC(=O)[C@H]6C[C@@H](C(=O)O)C6(C)C)C(C)(C)[C@@H]5CC[C@]43C)[C@@H]12` [Compound 27, (1R,3S)-3-((((1R,3aS,5aR,5bR,7aR,9S,11aR,11bR,13aR,13bR)-3a-((2S,4R)-4-(2-methoxyethoxy)-2-(4-phenyl-1-(2-(pyrrolidin-1-yl)ethyl)-1H-imidazol-2-yl)pyrrolidine-1-carbonyl)-5a,5b,8,8,11a-pentamethyl-1-(prop-1-en-2-yl)icosahydro-1H-cyclopenta[a]chrysen-9-yl)oxy)carbonyl)-2,2-dimethylcyclobutane-1-carboxylic acid], in series [3], the exposure AUC(0-t) worked out at 355 µg·h/mL and the concentration peaked (Cmax) at 10900 ng/mL. Besides, in series [1], the viability at 4 days, 0.01 µM came out at 60%; the viability at 4 days, 0.1 µM stood at 24%; the viability at 4 days, 1 µM worked out at 8%. In series [2], the inhibition at 0.01 µM was 0%, the inhibition at 0.1 µM was 100%, the inhibition at 1 µM was 100% and the IC50 is 0.034 µM.

In the case of `C=C(C)[C@@H]1CC[C@]2(C(=O)N3CCC[C@H]3c3nc(-c4ccccc4)cn3CCP(=O)(O)O)CC[C@]3(C)[C@H](CC[C@@H]4[C@@]5(C)CC[C@H](OC(=O)[C@H]6C[C@@H](C(=O)O)C6(C)C)C(C)(C)[C@@H]5CC[C@]43C)[C@@H]12` [Compound 23, (1R,3S)-2,2-dimethyl-3-((((1R,3aS,5aR,5bR,7aR,9S,11aR,11bR,13aR,13bR)-5a,5b,8,8,11a-pentamethyl-3a-((S)-2-(4-phenyl-1-(2-phosphonoethyl)-1H-imidazol-2-yl)pyrrolidine-1-carbonyl)-1-(prop-1-en-2-yl)icosahydro-1H-cyclopenta[a]chrysen-9-yl)oxy)carbonyl)cyclo butane-1-carboxylic acid], in series [1], the viability at 4 days, 10 µM was 88%; the viability at 4 days, 30 µM is 77%; the viability at 4 days, 100 µM came to 66%. Also, in series [2], the inhibition at 0.01 µM was 24%, the inhibition at 0.1 µM was 21% and the inhibition at 1 µM is 66%.

`C=C(C)[C@@H]1CC[C@]2(C(=O)N3CCC[C@H]3c3nc4ccccc4n3CCN3CCCC3)CC[C@]3(C)[C@H](CC[C@@H]4[C@@]5(C)CC[C@H](OC(=O)[C@H]6C[C@@H](C(=O)O)C6(C)C)C(C)(C)[C@@H]5CC[C@]43C)[C@@H]12` [Compound 30, (1R,3S)-2,2-dimethyl-3-((((1R,3aS,5aR,5bR,7aR,9S,11aR,11bR,13aR,13bR)-5a,5b,8,8,11a-pentamethyl-1-(prop-1-en-2-yl)-3a-((S)-2-(1-(2-(pyrrolidin-1-yl)ethyl)-1H-benzo[d]imidazol-2-yl)pyrrolidine-1-carbonyl)icosahydro-1H-cyclopenta[a]chrysen-9-yl)oxy)carbonyl)cyclobutane-1-carboxylic acid]: in series [3], the AUC(0-t) came out at 546 µg·h/mL and the Cmax was determined as 14800 ng/mL. In addition, in series [1], the viability at 4 days, 0.01 µM turned out to be 33%; the viability at 4 days, 0.1 µM worked out at 3%; the viability at 4 days, 1 µM came out at 5%. Further, in series [2], the inhibition at 0.01 µM is 71%, the inhibition at 0.1 µM was 100%, the inhibition at 1 µM was 100% and the 50% inhibitory concentration (IC50) was 0.0102 µM.
